Experimental data taken from ChEMBL document CHEMBL5696439 (Cancer Res, 2010).
Calls of active or inactive are those of the source. The calls are words filed in the database; no cut-off is given here.

Legend:
PI3K p110 beta/p85 alpha = PI3K p110 beta/p85 alpha (Homo sapiens, UniProt P42338); assay: Inhibition of p110beta/p85alpha (unknown origin) using PIP2 as substrate measured after 15 to 30 mins by fluorescence polarization assay; assay type: protein-complex assay
[1] = tested on: Tyrosine-protein kinase ABL1 (Homo sapiens), P00519 [G250E]; assay: Inhibition of recombinant human full-length His-tagged ABL1 G250E mutant expressed in insect cells at 2 uM using Tyr 02 as substrate measured after 1 hr by Z'-LYTE assay relative to control; settings: Insect cell
[2] = target: Activin receptor type-1B (Homo sapiens) (UniProt P36896); assay: Inhibition of recombinant human GST-tagged ACVR1B (150 to 505 residues) expressed in insect cells at 2 uM using Ser/Thr 16 as substrate measured after 1 hr by Z'-LYTE assay relative to control; settings: Insect cell
[3] = tested on: Epidermal growth factor receptor (Homo sapiens), P00533 [L858R]; assay: Inhibition of recombinant human GST-tagged EGFR L858R mutant (668-1210 residues) expressed in insect cells at 2 uM using Tyr 04 as substrate measured after 1 hr by Z'-LYTE assay relative to control; settings: Insect cell
[4] = target: Ephrin type-A receptor 3 (Homo sapiens) (UniProt P29320); assay: Inhibition of recombinant human His-tagged EPHA3 (568-976 residues) expressed in baculovirus expression system at 2 uM measured after 1 hr by Z'-LYTE assay relative to control
[5] = target: Tyrosine-protein kinase Fes/Fps (Homo sapiens) (UniProt P07332); assay: Inhibition of recombinant human full-length His-tagged FES expressed in baculovirus expression system at 2 uM using Tyr 01 as substrate measured after 1 hr by Z'-LYTE assay relative to control
[6] = target: Rhodopsin kinase GRK7 (Homo sapiens) (UniProt Q8WTQ7); assay: Inhibition of recombinant human full-length GST-tagged GRK7 expressed in insect cells at 2 uM using Ser/Thr 16 as substrate measured after 1 hr by Z'-LYTE assay relative to control; settings: Insect cell
[7] = target: Mitogen-activated protein kinase 14 (Homo sapiens) (UniProt Q16539); assay: Inhibition of recombinant human full length GST-tagged MAPK14 expressed in E. coli at 2 uM using Ser/Thr 04 as substrate measured after 1 hr by Z'-LYTE assay relative to control
[8] = target: MAP kinase-activated protein kinase 2 (Homo sapiens) (UniProt P49137); assay: Inhibition of recombinant human full length His-tagged MAPKAPK2 expressed in E. coli at 2 uM using Ser/Thr 04 as substrate measured after 1 hr by Z'-LYTE assay relative to control
[9] = tested on: Platelet-derived growth factor receptor alpha (Homo sapiens), P16234 [T674I]; assay: Inhibition of recombinant human GST-tagged PDGFRA T674I mutant (550-1089 residues) expressed in baculovirus expression system at 2 uM using Tyr 04 as substrate measured after 1 hr by Z'-LYTE assay relative to control
[10] = target: Phosphorylase b kinase gamma catalytic chain, liver/testis isoform (Homo sapiens) (UniProt P15735); assay: Inhibition of recombinant human full length GST-tagged PHKG2 expressed in insect cells at 2 uM using Ser/Thr 07 as substrate measured after 1 hr by Z'-LYTE assay relative to control; settings: Insect cell
[11] = target: Protein kinase C eta type (Homo sapiens) (UniProt P24723); assay: Inhibition of recombinant human PRKCH at 2 uM using Ser/Thr 07 as substrate measured after 1 hr by Z'-LYTE assay relative to control
[12] = target: Rho-associated protein kinase 1 (Homo sapiens) (UniProt Q13464); assay: Inhibition of recombinant human GST-tagged ROCK1 (1-535 residues) expressed in insect cells at 2 uM using Ser/Thr 07 as substrate measured after 1 hr by Z'-LYTE assay relative to control; settings: Insect cell
[13] = target: SRSF protein kinase 1 (Homo sapiens) (UniProt Q96SB4); assay: Inhibition of recombinant human full length His-tagged SRPK1 expressed in insect cells at 2 uM using Ser/Thr 18 as substrate measured after 1 hr by Z'-LYTE assay relative to control; settings: Insect cell
[14] = target: Serine/threonine-protein kinase 24 (Homo sapiens) (UniProt Q9Y6E0); assay: Inhibition of recombinant human full length GST-tagged STK24 expressed in insect cells at 2 uM using Ser/Thr 07 as substrate measured after 1 hr by Z'-LYTE assay relative to control; settings: Insect cell
[15] = target: Angiopoietin-1 receptor (Homo sapiens) (UniProt Q02763); assay: Inhibition of recombinant human GST-tagged TEK (817-1101 residues) expressed in insect cells at 2 uM using […] as substrate measured after 1 hr by Z'-LYTE assay relative to control; settings: Insect cell
[16] = target: Tyrosine-protein kinase receptor TYRO3 (Homo sapiens) (UniProt Q06418); assay: Inhibition of recombinant human GST-tagged TYRO3 (451-890 residues) expressed in insect cells at 2 uM using […] as substrate measured after 1 hr by Z'-LYTE assay relative to control; settings: Insect cell
A549 = assay: Antiproliferative activity against human A549 cells assessed as cell growth inhibition incubated for 24 hrs by MTS assay; assay type: functional, cell-based; settings: A549, 24 h
HCT-116 [17] = assay: Induction of apoptosis in human HCT-116 cells assessed as reduction in S phase at 1 micromol/L incubated for 24 hrs by FACS analysis; assay type: functional, cell-based; settings: dose 1.0 µmol/L
HCT-116 [18] = assay: Antitumor activity against human HCT-116 cells xenografted in female nude mouse model assessed as suppression in P-AKT at S473 level at 50 mg/kg, iv administered once a week and measured at least 8 hrs by immunoblot analysis; assay type: functional, organism-based
HT-29 = assay: Antitumor activity against human HT-29 cells xenografted in female nude mouse model assessed as suppression in P-AKT at S473 level at 50 mg/kg, iv administered once a week and measured at least 8 hrs by immunoblot analysis; assay type: functional, organism-based
U-87 MG = assay: Antitumor activity against PTEN-null human U-87MG cells xenografted in female nude mouse model assessed as tumor growth delay at 25 to 50 mg/kg, po qd administered as 5 days on/2 days off regimen for 4 cycles; assay type: functional, organism-based; settings: U-87MG ATCC, dose 25-50 mg/kg, time 28.0 day
786-0 = assay: Antitumor activity against VHL null-human 786-0 cells xenografted in female nude mouse model assessed as suppression in tumor growth at 25 mg/kg, po qd administered as 5 days on/2 days off regimen for 4 cycles relative to control; assay type: functional; settings: time 28 day
mTORC2 (Homo sapiens) [19] = target: T1, mTORC2 (Homo sapiens) (UniProt P42345+Q6R327+Q9BVC4+Q9BPZ7); settings: U-87 MG, dose 0.025-2 µmol/L, time 6.0 hrs
mTORC2 (Homo sapiens) [20] = target: T1, mTORC2 (Homo sapiens); settings: PC3MM2, dose 0.1-1 µM, time 6.0 hrs

Sequence of Angiopoietin-1 receptor (Homo sapiens) (Q02763 whole entry, the tested form may be a part): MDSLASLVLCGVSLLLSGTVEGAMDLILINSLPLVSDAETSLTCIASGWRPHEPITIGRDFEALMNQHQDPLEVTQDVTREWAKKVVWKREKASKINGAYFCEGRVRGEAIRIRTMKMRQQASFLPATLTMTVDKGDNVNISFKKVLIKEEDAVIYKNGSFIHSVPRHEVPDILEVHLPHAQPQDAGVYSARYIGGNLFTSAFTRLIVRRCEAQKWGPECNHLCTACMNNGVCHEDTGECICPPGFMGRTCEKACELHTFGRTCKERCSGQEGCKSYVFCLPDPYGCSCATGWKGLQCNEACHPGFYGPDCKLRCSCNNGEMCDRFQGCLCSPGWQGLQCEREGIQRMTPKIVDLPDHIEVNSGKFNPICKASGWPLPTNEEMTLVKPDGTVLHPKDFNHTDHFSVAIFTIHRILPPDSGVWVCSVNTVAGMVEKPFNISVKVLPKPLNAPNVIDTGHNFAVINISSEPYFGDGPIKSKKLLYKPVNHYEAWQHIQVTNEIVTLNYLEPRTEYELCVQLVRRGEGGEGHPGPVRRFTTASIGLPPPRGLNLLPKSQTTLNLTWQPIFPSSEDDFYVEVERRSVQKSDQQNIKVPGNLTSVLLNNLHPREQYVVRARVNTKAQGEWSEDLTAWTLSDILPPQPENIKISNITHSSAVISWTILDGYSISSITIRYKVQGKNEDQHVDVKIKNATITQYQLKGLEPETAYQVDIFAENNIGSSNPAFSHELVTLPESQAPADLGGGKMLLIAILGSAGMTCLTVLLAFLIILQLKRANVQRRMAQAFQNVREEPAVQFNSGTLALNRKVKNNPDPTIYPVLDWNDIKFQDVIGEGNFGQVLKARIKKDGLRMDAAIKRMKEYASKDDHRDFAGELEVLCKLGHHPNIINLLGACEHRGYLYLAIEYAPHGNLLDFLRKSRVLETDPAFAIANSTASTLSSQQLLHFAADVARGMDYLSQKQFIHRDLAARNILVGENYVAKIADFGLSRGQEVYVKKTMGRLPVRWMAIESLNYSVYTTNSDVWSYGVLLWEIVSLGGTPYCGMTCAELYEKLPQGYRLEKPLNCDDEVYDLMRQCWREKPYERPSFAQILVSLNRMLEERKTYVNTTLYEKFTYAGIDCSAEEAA
Sequence of Epidermal growth factor receptor (Homo sapiens), P00533 [L858R] (P00533 whole entry L858R, the tested form may be a part): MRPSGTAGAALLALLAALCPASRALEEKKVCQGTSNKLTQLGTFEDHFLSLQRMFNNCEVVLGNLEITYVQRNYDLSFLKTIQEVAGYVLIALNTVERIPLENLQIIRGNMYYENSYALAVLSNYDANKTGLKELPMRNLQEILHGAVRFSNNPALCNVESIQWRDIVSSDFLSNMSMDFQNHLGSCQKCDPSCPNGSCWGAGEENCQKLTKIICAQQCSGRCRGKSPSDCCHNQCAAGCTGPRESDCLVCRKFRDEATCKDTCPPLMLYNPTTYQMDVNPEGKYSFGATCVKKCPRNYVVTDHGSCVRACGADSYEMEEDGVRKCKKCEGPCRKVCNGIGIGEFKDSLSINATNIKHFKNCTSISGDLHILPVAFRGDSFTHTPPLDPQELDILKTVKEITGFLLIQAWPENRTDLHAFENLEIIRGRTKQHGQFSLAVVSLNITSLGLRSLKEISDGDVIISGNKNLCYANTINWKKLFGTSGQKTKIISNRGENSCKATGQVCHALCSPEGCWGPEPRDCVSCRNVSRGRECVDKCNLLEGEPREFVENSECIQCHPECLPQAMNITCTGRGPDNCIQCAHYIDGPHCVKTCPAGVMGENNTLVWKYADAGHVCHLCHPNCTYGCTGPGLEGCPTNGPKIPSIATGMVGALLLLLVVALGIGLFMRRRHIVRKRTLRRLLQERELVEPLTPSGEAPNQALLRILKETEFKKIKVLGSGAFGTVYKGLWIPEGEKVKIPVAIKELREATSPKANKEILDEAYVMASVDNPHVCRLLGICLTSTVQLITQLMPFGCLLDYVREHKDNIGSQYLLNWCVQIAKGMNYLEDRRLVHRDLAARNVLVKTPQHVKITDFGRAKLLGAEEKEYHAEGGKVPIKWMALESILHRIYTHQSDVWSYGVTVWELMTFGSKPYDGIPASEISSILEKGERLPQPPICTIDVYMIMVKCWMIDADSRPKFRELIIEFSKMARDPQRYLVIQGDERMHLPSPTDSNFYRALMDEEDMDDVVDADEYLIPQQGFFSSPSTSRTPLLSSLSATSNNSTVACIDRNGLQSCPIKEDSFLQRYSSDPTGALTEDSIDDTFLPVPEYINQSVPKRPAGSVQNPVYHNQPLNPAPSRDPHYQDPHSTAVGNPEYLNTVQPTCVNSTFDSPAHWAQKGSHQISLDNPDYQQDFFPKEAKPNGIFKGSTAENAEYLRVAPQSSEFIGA
Sequence of Mitogen-activated protein kinase 14 (Homo sapiens) (Q16539 whole entry): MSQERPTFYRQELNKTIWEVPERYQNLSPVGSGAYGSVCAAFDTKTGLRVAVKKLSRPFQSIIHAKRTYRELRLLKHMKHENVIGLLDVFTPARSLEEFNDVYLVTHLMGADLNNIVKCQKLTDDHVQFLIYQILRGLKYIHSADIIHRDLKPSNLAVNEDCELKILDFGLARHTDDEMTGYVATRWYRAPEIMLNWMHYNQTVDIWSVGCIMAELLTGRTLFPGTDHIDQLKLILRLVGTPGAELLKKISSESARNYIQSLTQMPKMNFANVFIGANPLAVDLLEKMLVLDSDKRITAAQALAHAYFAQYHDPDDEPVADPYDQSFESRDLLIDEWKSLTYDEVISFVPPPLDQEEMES
Sequence of Phosphorylase b kinase gamma catalytic chain, liver/testis isoform (Homo sapiens) (P15735 whole entry, canonical isoform): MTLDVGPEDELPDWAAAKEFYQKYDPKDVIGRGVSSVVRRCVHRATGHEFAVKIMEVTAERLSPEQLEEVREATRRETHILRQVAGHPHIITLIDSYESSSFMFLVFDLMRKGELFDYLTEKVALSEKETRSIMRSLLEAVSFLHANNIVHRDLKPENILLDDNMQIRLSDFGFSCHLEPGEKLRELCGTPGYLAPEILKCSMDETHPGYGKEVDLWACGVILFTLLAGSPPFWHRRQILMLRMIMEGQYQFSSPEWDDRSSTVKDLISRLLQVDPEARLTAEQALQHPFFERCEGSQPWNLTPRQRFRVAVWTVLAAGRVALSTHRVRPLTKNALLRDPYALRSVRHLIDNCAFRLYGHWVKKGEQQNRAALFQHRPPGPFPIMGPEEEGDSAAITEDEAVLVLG
Sequence of Platelet-derived growth factor receptor alpha (Homo sapiens), P16234 [T674I] (P16234 whole entry T674I, the tested form may be a part, canonical isoform): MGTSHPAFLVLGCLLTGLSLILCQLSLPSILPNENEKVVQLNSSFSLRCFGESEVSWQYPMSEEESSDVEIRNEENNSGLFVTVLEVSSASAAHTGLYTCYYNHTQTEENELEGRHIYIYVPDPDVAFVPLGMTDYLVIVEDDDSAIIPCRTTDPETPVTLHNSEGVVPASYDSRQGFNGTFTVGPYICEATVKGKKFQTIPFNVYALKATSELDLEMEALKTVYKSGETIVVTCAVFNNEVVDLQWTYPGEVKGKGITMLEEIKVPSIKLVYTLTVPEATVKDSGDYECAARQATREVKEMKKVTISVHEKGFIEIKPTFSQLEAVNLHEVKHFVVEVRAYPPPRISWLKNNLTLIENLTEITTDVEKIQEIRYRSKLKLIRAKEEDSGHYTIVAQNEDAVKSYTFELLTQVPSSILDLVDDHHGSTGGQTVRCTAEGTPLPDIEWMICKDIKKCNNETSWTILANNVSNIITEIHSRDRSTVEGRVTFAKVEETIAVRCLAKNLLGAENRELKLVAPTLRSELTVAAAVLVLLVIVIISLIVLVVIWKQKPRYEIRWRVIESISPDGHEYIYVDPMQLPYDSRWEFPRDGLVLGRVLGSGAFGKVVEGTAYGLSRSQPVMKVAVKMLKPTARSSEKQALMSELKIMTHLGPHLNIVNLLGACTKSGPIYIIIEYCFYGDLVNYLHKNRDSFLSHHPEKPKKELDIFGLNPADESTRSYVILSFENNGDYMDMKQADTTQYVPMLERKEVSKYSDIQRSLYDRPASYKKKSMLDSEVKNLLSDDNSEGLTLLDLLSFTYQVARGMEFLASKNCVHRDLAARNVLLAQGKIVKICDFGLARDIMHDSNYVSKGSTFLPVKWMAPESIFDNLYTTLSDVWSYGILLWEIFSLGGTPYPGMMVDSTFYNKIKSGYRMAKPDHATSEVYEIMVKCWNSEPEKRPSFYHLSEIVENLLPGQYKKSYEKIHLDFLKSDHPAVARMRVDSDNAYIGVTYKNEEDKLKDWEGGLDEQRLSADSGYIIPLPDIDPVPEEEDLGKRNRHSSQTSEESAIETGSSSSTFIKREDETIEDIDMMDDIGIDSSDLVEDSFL
Sequence of Activin receptor type-1B (Homo sapiens) (P36896 whole entry, the tested form may be a part): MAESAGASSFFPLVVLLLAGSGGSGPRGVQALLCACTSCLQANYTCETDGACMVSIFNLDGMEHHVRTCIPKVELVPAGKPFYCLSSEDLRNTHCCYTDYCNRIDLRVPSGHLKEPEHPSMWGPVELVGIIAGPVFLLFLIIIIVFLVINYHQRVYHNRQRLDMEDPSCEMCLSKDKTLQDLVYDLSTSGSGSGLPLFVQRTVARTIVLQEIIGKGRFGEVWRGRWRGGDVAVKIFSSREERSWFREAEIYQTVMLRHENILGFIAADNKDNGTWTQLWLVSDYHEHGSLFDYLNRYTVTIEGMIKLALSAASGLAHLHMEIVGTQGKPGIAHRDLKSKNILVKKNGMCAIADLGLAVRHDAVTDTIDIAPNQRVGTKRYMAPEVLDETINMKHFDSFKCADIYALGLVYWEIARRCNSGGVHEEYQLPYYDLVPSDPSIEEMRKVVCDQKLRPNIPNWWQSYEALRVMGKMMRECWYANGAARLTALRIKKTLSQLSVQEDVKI

`CNC(=O)Nc1ccc(-c2nc(N3CC4CCC(C3)O4)c3cnn(C4CCC5(CC4)OCCO5)c3n2)cc1` was tested, and the IC50 (PI3K p110 beta/p85 alpha) was > 10000 nM, the inhibition [1] was 3% and the inhibition [2] was 3%. The inhibition [3] was 3%, the inhibition [4] was 4% and the inhibition [5] was -1%. The inhibition [6] was 7%, the inhibition [7] was 11% and the inhibition [8] was 4%. For the same compound, the inhibition [9] was 12%, the inhibition [10] was 12% and the inhibition [11] was 14%. It also gave an inhibition [12] of -8%, an inhibition [13] of 2% and an inhibition [14] of -1%. The inhibition [15] was 10%, the inhibition [16] was 9% and the IC50 (A549) was 102 nM. The Activity (HCT-116 [17]) was “Active”, the Activity (HCT-116 [18]) was “Active” and the Activity (HT-29) was “Active”. For the same compound, the Activity (U-87 MG) was “Active”, the Activity (786-0) was 100% and the inhibition (mTORC2 (Homo sapiens) [19]) was “Active”. For the same compound, the inhibition (mTORC2 (Homo sapiens) [20]) was “Active”.
